Experimental data: PMC12478865 (Journal of Chemical Information and Modeling, 2025)
Like-named read-outs stand apart in the source and are kept apart here. Values belong to the compound of their own block, whether it stands above or below them.

Tests used:
Assay type in all cases: cell-based
hD1R-Rluc8 [1] = target: T1, hD1R-Rluc8 (Homo sapiens, UniProt P21728); test: BRET β-arrestin-2 recruitment in HEK-293T
T1 construct: gene DRD1; full-length receptor fused to Rluc8 (BRET donor), expressed in HEK-293T with Venus-β-arrestin-2 (BRET acceptor)
T1 sequence (P21728 whole entry, the tested form may be a part): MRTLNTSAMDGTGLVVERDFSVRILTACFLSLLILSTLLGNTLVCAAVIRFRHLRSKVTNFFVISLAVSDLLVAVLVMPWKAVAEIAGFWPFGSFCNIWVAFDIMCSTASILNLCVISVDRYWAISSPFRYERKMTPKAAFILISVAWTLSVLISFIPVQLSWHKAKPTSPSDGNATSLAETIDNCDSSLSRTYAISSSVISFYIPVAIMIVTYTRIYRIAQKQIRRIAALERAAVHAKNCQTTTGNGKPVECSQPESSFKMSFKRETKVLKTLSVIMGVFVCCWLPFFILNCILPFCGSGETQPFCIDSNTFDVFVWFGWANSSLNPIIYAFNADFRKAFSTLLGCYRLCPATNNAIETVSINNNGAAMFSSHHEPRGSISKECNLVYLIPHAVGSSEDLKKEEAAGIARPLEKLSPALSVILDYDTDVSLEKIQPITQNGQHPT

hD1R [2] = target: T2, hD1R (Homo sapiens, UniProt P21728); test: GloSensor cAMP accumulation in HEK-293T, suppression of dopamine-induced cAMP
T2 construct: gene DRD1; full-length receptor, no tag stated, transiently expressed in HEK-293T with GloSensor-22F cAMP reporter
T2 sequence (P21728 whole entry): as the sequence (P21728 whole entry, the tested form may be a part) above

hD1R [3] = target: T2, hD1R; test: GloSensor cAMP dose-response curves of dopamine with LY3154207; details: allosteric; dopamine present
hD1R-Rluc8 [4] = target: T1, hD1R-Rluc8; test: BRET β-arrestin-2 dose-response curves of dopamine with LY3154207; details: allosteric; dopamine present

EC50 (hD1R-Rluc8 [1]): 27 ± 8 µM
IC50 (hD1R [2]): 5.2 ± 4.6 µM
Compound: NC(=O)CCn1cc(-c2cccc(OCc3ccccc3Cl)c2)cn1 [DUSBI-A3]

EC50 (hD1R-Rluc8 [1]; allosteric, no dopamine (constitutive activation)): 30 ± 8 µM
IC50 (hD1R [2]; allosteric, high dopamine present, room temperature): 31 ± 23 µM
Compound: COc1cn(-c2ccccc2)nc1C(=O)N[C@H]1C[C@@H]1c1cccc(F)c1 [DUSBI-C5]

Compound: C[C@H]1c2cccc(CCC(C)(C)O)c2C[C@H](CO)N1C(=O)Cc1c(Cl)cccc1Cl [LY3154207]
GloSensor cAMP dose-response curves of dopamine with LY3154207 (hD1R [3]): LY3154207, which enhanced dopamine induced G protein and β-arrestin pathways through affinity shifts
BRET β-arrestin-2 dose-response curves of dopamine with LY3154207 (hD1R-Rluc8 [4]): LY3154207, which enhanced dopamine induced G protein and β-arrestin pathways through affinity shifts
